The NIST ThermoML archive (doi:10.1021/je049959i)
± gives the expanded uncertainty stated by the source.

Conditions: Liquid, Closed cell (Static) method

## C=CCC [1-butene]
323.27 K
  vapor or sublimation pressure: 596.14 ± 2.1 kPa

## CC(C)C [2-methylpropane]
318.59 K
  vapor or sublimation pressure: 610.84 ± 2.1 kPa

## C=C(C)C [2-methylpropene]
323.07 K
  vapor or sublimation pressure: 607.94 ± 2.1 kPa

## C/C=C/C [(E)-2-butene]
332.05 K
  vapor or sublimation pressure: 606.54 ± 2.2 kPa

## C/C=C\C [(Z)-2-butene]
331.92 K
  vapor or sublimation pressure: 561.34 ± 2.1 kPa

## CCCC [butane]
330.16 K
  vapor or sublimation pressure: 592.44 ± 2.6 kPa

## CCCO [propan-1-ol]
318.58 K
  vapor or sublimation pressure: 9.47 ± 0.17 kPa
323.07 K
  vapor or sublimation pressure: 12.07 ± 0.18 kPa
323.26 K
  vapor or sublimation pressure: 12.27 ± 0.18 kPa
330.16 K
  vapor or sublimation pressure: 17.57 ± 0.19 kPa
331.92 K
  vapor or sublimation pressure: 19.07 ± 0.18 kPa
332.05 K
  vapor or sublimation pressure: 19.17 ± 0.18 kPa
